The target in one data set is T1, Coagulation factor VII (Homo sapiens, UniProt P08709).
T1 sequence (P08709 whole entry): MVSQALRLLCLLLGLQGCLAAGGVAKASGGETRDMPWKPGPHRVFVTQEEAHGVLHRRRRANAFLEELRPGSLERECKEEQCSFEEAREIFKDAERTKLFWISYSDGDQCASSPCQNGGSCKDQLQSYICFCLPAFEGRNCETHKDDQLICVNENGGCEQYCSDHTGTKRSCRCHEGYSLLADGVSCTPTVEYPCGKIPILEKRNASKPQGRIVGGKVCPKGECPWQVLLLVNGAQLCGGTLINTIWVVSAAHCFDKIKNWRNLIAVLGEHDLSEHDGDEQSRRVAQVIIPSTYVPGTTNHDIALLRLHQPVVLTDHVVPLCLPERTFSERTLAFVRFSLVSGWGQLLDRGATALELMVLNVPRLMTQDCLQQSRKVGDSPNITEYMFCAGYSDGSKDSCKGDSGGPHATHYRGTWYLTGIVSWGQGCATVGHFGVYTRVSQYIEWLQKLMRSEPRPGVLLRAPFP
In words: Inhibition of human TF/FVIIa complex by chromogenic assay.

In data set [1] the test system is Plasma. In words: Anticoagulant potency in human citreated plasma assessed as concentration required to double activated partial thromboplastin time. In kind it is functional.
A further data set has as its target Coagulation factor X (Homo sapiens, UniProt P00742). As to the kind of experiment: Inhibition of human Fxa by chromogenic assay.
A short description of data set [2]: Plasma concentration in ICR mouse at 300 mg/kg, po after 2 hrs by TF/FVIIa inhibition assay. Set-up: dose 300 mg/kg, route oral. It is filed as ADME, organism-based.
Data set [3] can be described thus: Plasma concentration in ICR mouse at 300 mg/kg, po after 0.5 hrs by TF/FVIIa inhibition assay. It is filed as ADME, organism-based. Set-up: dose 300 mg/kg, route oral.
The test system of data set [4] is Plasma. As to the kind of experiment: Anticoagulant potency in human citreated plasma assessed as concentration required to double prothrombin time. It is filed as functional.
The target of the next data set is Prothrombin (Homo sapiens, UniProt P00734). As to the kind of experiment: Inhibition of human thrombin by chromogenic assay.
The target in the next data set is Trypsin (Homo sapiens, UniProt P07477+P07478+P35030). As to the kind of experiment: Inhibition of human trypsin by chromogenic assay. In kind it is protein assay.
The subject of data set [5] is Cynomolgus monkey. As to the kind of experiment: Effect on activated partial thromboplastin time in cynomolgus monkey citreated blood at 3 mg/kg, iv. In kind it is functional, Macaca fascicularis.
Data set [6] relates to Cynomolgus monkey. As to the kind of experiment: Prolongation of prothrombin time in cynomolgus monkey citreated blood at 30 mg/kg, iv. It is filed as functional, Macaca fascicularis.
Data set [7] in a line: Plasma concentration in ICR mouse at 100 mg/kg, po after 4 hrs by TF/FVIIa inhibition assay. Set-up: dose 100 mg/kg, route oral. It is filed as ADME, organism-based.
The subject of data set [8] is Cynomolgus monkey. In words: Effect on activated partial thromboplastin time in cynomolgus monkey citreated blood at 30 mg/kg, iv. In kind it is functional, Macaca fascicularis.
Data set [9] relates to Cynomolgus monkey. As to the kind of experiment: Effect on activated partial thromboplastin time in cynomolgus monkey citreated blood at 10 mg/kg, iv. In kind it is functional, Macaca fascicularis.
Data set [10] has as its system Cynomolgus monkey. In words: Effect on bleeding time in cynomolgus monkey at 30 mg/kg, iv. In kind it is functional, Macaca fascicularis.
The test system of data set [11] is Cynomolgus monkey. As to the kind of experiment: Prolongation of prothrombin time in cynomolgus monkey citreated blood at 3 mg/kg, iv. It is filed as functional, Macaca fascicularis.
Data set [12] concerns Cynomolgus monkey. In words: Effect on bleeding time in cynomolgus monkey at 3 mg/kg, iv. In kind it is functional, Macaca fascicularis.
Data set [13] has as its system Cynomolgus monkey. In words: Prolongation of prothrombin time in cynomolgus monkey citreated blood at 10 mg/kg, iv. It is filed as functional, Macaca fascicularis.
The test system of data set [14] is Cynomolgus monkey. As to the kind of experiment: Effect on bleeding time in cynomolgus monkey at 10 mg/kg, iv. In kind it is functional, Macaca fascicularis.
Data set [15] is described as follows: Plasma concentration in ICR mouse at 100 mg/kg, po after 0.5 hrs by TF/FVIIa inhibition assay. The arrangement: dose 100 mg/kg, route oral. It is filed as ADME, organism-based.
Data set [16] can be described thus: Plasma concentration in ICR mouse at 100 mg/kg, po after 2 hrs by TF/FVIIa inhibition assay. In kind it is ADME, organism-based. The arrangement: dose 100 mg/kg, route oral.

Molecules are shown by their SMILES. pIC50: −log10 of the molar value.

In general, pIC50 refers to the IC50 on a negative log10 scale, so that one unit is a factor of ten. One may read the IC50 as the concentration at which inhibition is half-maximal.

Coagulation factor X, sequence (P00742 41-179 limits assumed): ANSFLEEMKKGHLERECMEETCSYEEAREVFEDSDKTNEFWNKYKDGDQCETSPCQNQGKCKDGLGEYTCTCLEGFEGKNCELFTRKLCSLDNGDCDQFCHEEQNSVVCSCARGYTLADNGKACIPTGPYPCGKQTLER
Coagulation factor X, sequence (P00742 235-488 limits assumed): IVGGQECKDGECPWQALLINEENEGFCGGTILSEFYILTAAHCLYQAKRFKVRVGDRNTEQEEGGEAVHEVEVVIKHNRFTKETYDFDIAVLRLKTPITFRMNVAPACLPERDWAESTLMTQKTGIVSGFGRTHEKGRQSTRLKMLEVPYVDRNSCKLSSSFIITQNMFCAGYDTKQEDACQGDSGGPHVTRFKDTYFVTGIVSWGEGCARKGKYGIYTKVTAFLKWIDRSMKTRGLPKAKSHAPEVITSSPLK

On Coagulation factor VII, `CCNc1ccc(-c2ccc(C(=O)N[C@@H](CC(C)C)C(N)=O)cc2C(=O)O)c(C(=O)Nc2cccc(C(N)=O)c2)c1` showed a pIC50 of 6.52.
Same read-out and setting: for `CC(C)C[C@H](NC(=O)c1ccc(-c2ccccc2C(=O)Nc2cccc(C(N)=O)c2)c(C(=O)O)c1)C(N)=O` the value was 5.38.
At Coagulation factor VII, `CC(C)CCNC(=O)c1ccc(-c2ccccc2C(=O)Nc2cccc(C(N)=O)c2)c(C(=O)O)c1` showed a pIC50 of 4.72.
As for `CC(C)CNC(=O)c1ccc(-c2ccccc2C(=O)Nc2ccc(C(=N)N)cc2)c(C(=O)O)c1`, the Activity with Plasma [1] stood at 4.3 µM; in the data set on Plasma [4], 4.2 µM. Further, the pIC50 is 6.06 on Coagulation factor X, 7.05 against Coagulation factor VII and < 3.70 on Prothrombin. The compound further yielded a concentration at 2 h in data set [2] of 160 ng/mL. Also, in data set [3], the concentration at 0.5 h came out at 300 ng/mL. On Trypsin, this compound came in with an IC50 of 4.8 µM.
`CC(C)C[C@H](NC(=O)c1ccc(-c2ccc(NC3CCCCC3)cc2C(=O)Nc2cccc(C(N)=O)c2)c(C(=O)O)c1)C(N)=O` had a pIC50 at Coagulation factor VII of 4.04.
The same measure, in the same setting: next, `CNC(=O)[C@H](CC(C)C)NC(=O)c1ccc(-c2ccccc2C(=O)Nc2cccc(C(N)=O)c2)c(C(=O)O)c1`: 5.38.
For `CNc1ccc(-c2ccc(C(=O)N[C@@H](CC(C)C)C(N)=O)cc2C(=O)O)c(C(=O)Nc2ccc(CN)cc2)c1`, the APTT in the data set on Cynomolgus monkey [5] stood at 29.1 s; with Cynomolgus monkey [8] it was 35 s; with Cynomolgus monkey [9] it was 32.2 s. Further, the Activity in the data set on Plasma [1] was >300 µM; in the data set with Cynomolgus monkey [10], 3.7 min; in the data set on Plasma [4], 47 µM; in the data set with Cynomolgus monkey [12], 3.5 min; in the data set with Cynomolgus monkey [14] it was 2.7 min. For the same compound, the PT in the data set on Cynomolgus monkey [6] stood at 38.4 s; in the data set with Cynomolgus monkey [11] it was 15.1 s; in the data set with Cynomolgus monkey [13] it was 24.5 s. For the same compound, the concentration at 4 h in data set [7] was determined as 130 ng/mL. The pIC50 was < 3.70 at Coagulation factor X, 6.23 at Coagulation factor VII and < 3.70 against Prothrombin. In addition, the concentration at 0.5 h in data set [3] was 1800 ng/mL. In addition, the IC50 against Trypsin is > 200 µM.
As to `CC(C)C[C@H](NC(=O)c1ccc(-c2ccccc2C(=O)Nc2cccc(C(N)=O)c2)c(C(=O)O)c1)C(=O)N(C)C`, the pIC50 against Coagulation factor VII was 5.49.
On the same count and under the same terms, for `CC(C)CNC(=O)c1ccc(-c2ccccc2C(=O)Nc2cccc(C(N)=O)c2)c(C(=O)O)c1` the value was 4.72.
The compound `CCCCNc1ccc(-c2ccc(C(=O)N[C@@H](CC(C)C)C(N)=O)cc2C(=O)O)c(C(=O)Nc2cccc(C(N)=O)c2)c1` showed a pIC50 against Coagulation factor VII of 5.66.
`CNc1ccc(-c2ccc(C(=O)N[C@@H](CC(C)C)C(N)=O)cc2C(=O)O)c(C(=O)Nc2cccc(C(N)=O)c2)c1`: in data set [15], the concentration at 0.5 h was determined as 280 ng/mL. This compound returned a concentration at 2 h in data set [16] of 210 ng/mL. The Activity in the data set with Plasma [1] was >300 µM; with Plasma [4] it was 20 µM. Moreover, the results for the pIC50 against Coagulation factor X, against Coagulation factor VII and on Prothrombin were < 3.70, 6.74 and < 3.70, respectively. Further, on Trypsin, the IC50 is > 200 µM.
Consider `CNc1ccc(-c2ccc(C(=O)N[C@H](CO)CC(C)C)cc2C(=O)O)c(C(=O)Nc2cccc(C(N)=O)c2)c1`, for which the pIC50 on Coagulation factor VII is 6.52.
Same read-out and setting: next, `CC(C)C[C@@H](CO)NC(=O)c1ccc(-c2ccccc2C(=O)Nc2cccc(C(N)=O)c2)c(C(=O)O)c1`: 5.07.
For the compound `CNc1ccc(-c2ccc(C(=O)NCC(C)C)cc2C(=O)O)c(C(=O)Nc2cccc(C(N)=O)c2)c1`, the values for the Activity in the data set on Plasma [1] and in the data set with Plasma [4] were >300 µM and 150 µM, respectively. Further, the pIC50 against Coagulation factor X is < 3.70; at Coagulation factor VII it was 6.16; at Prothrombin it was < 3.70. This compound registered an IC50 against Trypsin of 4.8 µM.
At Coagulation factor VII, `CC(C)C[C@H](NC(=O)c1ccc(-c2ccc(NC(C)C)cc2C(=O)Nc2cccc(C(N)=O)c2)c(C(=O)O)c1)C(N)=O` showed a pIC50 of 6.07.
Turning to `CNc1ccc(-c2ccc(C(=O)N[C@@H](CC(C)C)C(=O)O)cc2C(=O)O)c(C(=O)Nc2cccc(C(N)=O)c2)c1`, the values for the Activity with Plasma [1] and in the data set with Plasma [4] were >300 µM and 33 µM, respectively. The pIC50 on Coagulation factor X is < 3.70; against Coagulation factor VII, 6.82; against Prothrombin, < 3.70. Moreover, the IC50 at Trypsin is > 200 µM.
At Coagulation factor VII, `CC(C)C[C@H](CO)NC(=O)c1ccc(-c2ccccc2C(=O)Nc2cccc(C(N)=O)c2)c(C(=O)O)c1` had a pIC50 of 3.72.
Same read-out and setting: next, `CC(C)C[C@H](NC(=O)c1ccc(-c2ccccc2C(=O)Nc2cccc(C(N)=O)c2)c(C(=O)O)c1)C(=O)O`: 5.62; `CNc1ccc(-c2ccc(C(=O)N[C@H](CO)CC(C)C)cc2C(=O)O)c(C(=O)Nc2ccc(CN)cc2)c1`: 5.89.

The values above are taken from ChEMBL document CHEMBL1144521, “Design, synthesis and biological activity of selective and orally available TF/FVIIa complex inhibitors containing non-amidine P1 ligands” (Bioorg Med Chem, 2007).
